{"source": "PubChem BioAssay AID1918994", "about": "(Molecular Pharmacology Branch, DTP, NCI, 2023);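 note: spheroids exposed to compounds for seven days after three days of growth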", "tested_on": "292921-168-R-J2-PDC complex spheroid growth", "assay": "Anticancer human tumor 292921-168-R-J2-PDC patient-derived pancreatic carcinoma cell line growth inhibition [AhR]", "conditions": "for IC50: curve of first compound; for viability, T/C: stronger effect = lower value", "text": "Multicellular complex tumor spheroid response to aryl hydrocarbon receptor antagonists in combination with a variety of drugs and investigational agents in selected tumor cell lines\nThe current study was undertaken to assess response to aryl hydrocarbon receptor antagonists in combination with standard-of-care drugs and investigational agents in solid tumor complex spheroid models. Complex spheroids include a stromal component modeled by human endothelial cells (HUVEC) and fibroblasts modeled by human mesenchymal stem cells (MSCs). The concentration ranges selected for each drug and investigational agent were based upon clinically achievable concentrations if the clinical Cmax of the agent was known.\nCompounds. The drugs and investigational agents: BAY 2416964 (NSC825713), GNF351 (NSC835774), CH-223191 (NSC835775), CPI-455 (NSC825282), aza-TdCyd (NSC777586), decitabine (NSC127716), belinostat (NSC758774), entinostat (NSC756642), pevonedistat (NSC761192), tazemetostat (NSC777109), talazoparib (NSC765396), olaparib (NSC753686), selinexor (NSC780203), nedisertib (M3814, NSC802822), bortezomib (NSC756655), venetoclax (NSC766270), doxorubicin (NSC123127), elimusertib (BAY189344, NSC800525), ceralasertib (AZD6738, NSC777638), TAK-243 (NSC785004), alisertib (NSC759677), etoposide (NSC141540), topotecan (NSC609699), eribulin (NSC707389), gemcitabine (NSC613327), carboplatin (NSC241240), cisplatin (NSC119875), and SN-38 (NSC673596) were obtained from the National Cancer Institute (NCI) Developmental Therapeutics Program Chemical Repository (32). The FDA-approved anticancer drug set is available from the Developmental Therapeutics Program at https://dtp.cancer.gov/organization/dscb/obtaining/available plates.htm. […] The stock solutions were prepared in dimethyl sulfoxide (DMSO, Sigma-Aldrich, St. Louis, MO, cat. D2650), except for the platinum compounds which were prepared in saline (Quality Biological, Gaithersburg, MD, cat. 114-055-101), at 800-fold the tested concentration and stored at -70 degrees C prior to their use. All drugs and investigational agents were tested over a range starting from a high concentration at or near the clinical Cmax and decreasing in half-log increments. If the clinical Cmax for an agent had not been determined, the highest concentration tested was 10 microM (Table 1).\nCell Culture. All cells were maintained in an incubator at 37 degrees C and 5% CO2 with 95% humidity. The PDC lines were cultured according to standard operating procedures established by the NCI PDMR (https://pdmr.cancer.gov). Briefly, all PDCs were thawed and cultured in Matrigel-coated flasks prepared with a working solution of 1X Ham's F-12 nutrient mix, without supplementation (Invitrogen, Waltham, MA, cat. 11765054), 100 U/mL penicillin-streptomycin (Invitrogen, cat. 15140122), and 2.5% Matrigel (Corning Inc., Corning, NY, cat. 354248) for the first three passages. All PDCs were cultured in complete DMEM/F-12 media containing advanced DMEM/F-12 (Invitrogen, cat. 12634028), 4.9% defined fetal bovine serum, heat inactivated (HyClone Laboratories Inc., Logan, UT, cat. SH30070.03HI), 389 ng/mL hydrocortisone (Sigma-Aldrich, cat. H4001), 9.7 ng/mL human EGF recombinant protein (Invitrogen, cat. PHG0313), 23.4 microg/mL adenine (Sigma-Aldrich, cat. A2786), 97.3 U/mL penicillin-streptomycin (Invitrogen, cat. 15140122), 1.9 mM L-glutamine (Invitrogen, cat. 25030081), and 9.7 microM Y-27632 dihydrochloride (Tocris Bioscience, Bristol, United Kingdom, cat. 1254). The PDCs were cultured in complete DMEM/F12 media without 10 microM Y-27632 dihydrochloride for at least two passages prior to the screen. The established cell lines NCI-H1341 and […] were cultured in DMEM/F-12, HEPES (Invitrogen, cat. 11330032), 5% defined fetal bovine serum (HyClone Laboratories Inc., cat. SH30070.03), ITS premix universal culture supplement [insulin (5 microg/mL), transferrin (5 microg/mL), and selenious acid (5 ng/mL)] […]", "key": {"[1]": {"conditions": "second compound 0.1 µM, first compound 0.0316 µM"}, "[2]": {"conditions": "second compound 0.1 µM, first compound 0.1 µM"}, "[3]": {"conditions": "second compound 0.1 µM, first compound 0.316 µM"}, "[4]": {"conditions": "second compound 0.1 µM, first compound 1 µM"}, "[5]": {"conditions": "second compound 0.1 µM, first compound 3.16 µM"}, "[6]": {"conditions": "second compound 0.1 µM, first compound 10 µM"}, "[7]": {"conditions": "second compound 0.316 µM, first compound 0.0316 µM"}, "[8]": {"conditions": "second compound 0.316 µM, first compound 0.1 µM"}, "[9]": {"conditions": "second compound 0.316 µM, first compound 0.316 µM"}, "[10]": {"conditions": "second compound 0.316 µM, first compound 1 µM"}, "[11]": {"conditions": "second compound 0.316 µM, first compound 3.16 µM"}, "[12]": {"conditions": "second compound 0.316 µM, first compound 10 µM"}, "[13]": {"conditions": "second compound 1 µM, first compound 0.0316 µM"}, "[14]": {"conditions": "second compound 1 µM, first compound 0.1 µM"}, "[15]": {"conditions": "second compound 1 µM, first compound 0.316 µM"}, "[16]": {"conditions": "second compound 1 µM, first compound 1 µM"}, "[17]": {"conditions": "second compound 1 µM, first compound 3.16 µM"}, "[18]": {"conditions": "second compound 1 µM, first compound 10 µM"}, "[19]": {"conditions": "second compound 3.16 µM, first compound 0.0316 µM"}, "[20]": {"conditions": "second compound 3.16 µM, first compound 0.1 µM"}, "[21]": {"conditions": "second compound 3.16 µM, first compound 0.316 µM"}, "[22]": {"conditions": "second compound 3.16 µM, first compound 1 µM"}, "[23]": {"conditions": "second compound 3.16 µM, first compound 3.16 µM"}, "[24]": {"conditions": "second compound 3.16 µM, first compound 10 µM"}, "[25]": {"conditions": "second compound 10 µM, first compound 0.0316 µM"}, "[26]": {"conditions": "second compound 10 µM, first compound 0.1 µM"}, "[27]": {"conditions": "second compound 10 µM, first compound 0.316 µM"}, "[28]": {"conditions": "second compound 10 µM, first compound 1 µM"}, "[29]": {"conditions": "second compound 10 µM, first compound 3.16 µM"}, "[30]": {"conditions": "second compound 10 µM, first compound 10 µM"}}}
{"smiles": "Nc1ccccc1NC(=O)c1ccc(CNC(=O)OCc2cccnc2)cc1", "note": "+ CC(CO)NC(=O)c1cc(-c2ccc(Cl)cc2)nn(-c2cnn(C)c2)c1=O", "values": [{"measurement": "IC50", "setting": "second compound 0.1 µM", "value": 190, "unit": "nM"}, {"measurement": "IC50", "setting": "second compound 0.316 µM", "value": 148, "unit": "nM"}, {"measurement": "IC50", "setting": "second compound 1 µM", "value": 195, "unit": "nM"}, {"measurement": "IC50", "setting": "second compound 3.16 µM", "value": 116, "unit": "nM"}, {"measurement": "IC50", "setting": "second compound 10 µM", "value": "< 31.6", "unit": "nM"}, {"measurement": "viability, T/C", "setting": "[1]", "value": 67.5, "unit": "%"}, {"measurement": "viability, T/C", "setting": "[2]", "value": 58.8, "unit": "%"}, {"measurement": "viability, T/C", "setting": "[3]", "value": 43, "unit": "%"}, {"measurement": "viability, T/C", "setting": "[4]", "value": 31, "unit": "%"}, {"measurement": "viability, T/C", "setting": "[5]", "value": 25.5, "unit": "%"}, {"measurement": "viability, T/C", "setting": "[6]", "value": 9.72, "unit": "%"}, {"measurement": "viability, T/C", "setting": "[7]", "value": 69, "unit": "%"}, {"measurement": "viability, T/C", "setting": "[8]", "value": 51.2, "unit": "%"}, {"measurement": "viability, T/C", "setting": "[9]", "value": 44.3, "unit": "%"}, {"measurement": "viability, T/C", "setting": "[10]", "value": 28.1, "unit": "%"}, {"measurement": "viability, T/C", "setting": "[11]", "value": 23.7, "unit": "%"}, {"measurement": "viability, T/C", "setting": "[12]", "value": 10.4, "unit": "%"}, {"measurement": "viability, T/C", "setting": "[13]", "value": 66.6, "unit": "%"}, {"measurement": "viability, T/C", "setting": "[14]", "value": 60.7, "unit": "%"}, {"measurement": "viability, T/C", "setting": "[15]", "value": 43.4, "unit": "%"}, {"measurement": "viability, T/C", "setting": "[16]", "value": 25.4, "unit": "%"}, {"measurement": "viability, T/C", "setting": "[17]", "value": 23.7, "unit": "%"}, {"measurement": "viability, T/C", "setting": "[18]", "value": 9.21, "unit": "%"}, {"measurement": "viability, T/C", "setting": "[19]", "value": 60.8, "unit": "%"}, {"measurement": "viability, T/C", "setting": "[20]", "value": 51.1, "unit": "%"}, {"measurement": "viability, T/C", "setting": "[21]", "value": 43.3, "unit": "%"}, {"measurement": "viability, T/C", "setting": "[22]", "value": 23.1, "unit": "%"}, {"measurement": "viability, T/C", "setting": "[23]", "value": 22.7, "unit": "%"}, {"measurement": "viability, T/C", "setting": "[24]", "value": 8.28, "unit": "%"}, {"measurement": "viability, T/C", "setting": "[25]", "value": 45.9, "unit": "%"}, {"measurement": "viability, T/C", "setting": "[26]", "value": 40.5, "unit": "%"}, {"measurement": "viability, T/C", "setting": "[27]", "value": 32.9, "unit": "%"}, {"measurement": "viability, T/C", "setting": "[28]", "value": 19.4, "unit": "%"}, {"measurement": "viability, T/C", "setting": "[29]", "value": 18.1, "unit": "%"}, {"measurement": "viability, T/C", "setting": "[30]", "value": 5.12, "unit": "%"}]}
{"smiles": "O=C(c1cc(Cc2n[nH]c(=O)c3ccccc23)ccc1F)N1CCN(C(=O)C2CC2)CC1", "note": "+ CC(CO)NC(=O)c1cc(-c2ccc(Cl)cc2)nn(-c2cnn(C)c2)c1=O", "values": [{"measurement": "IC50", "setting": "second compound 0.1 µM", "value": "> 10000", "unit": "nM"}, {"measurement": "IC50", "setting": "second compound 0.316 µM", "value": "> 10000", "unit": "nM"}, {"measurement": "IC50", "setting": "second compound 1 µM", "value": "> 10000", "unit": "nM"}, {"measurement": "IC50", "setting": "second compound 3.16 µM", "value": "> 10000", "unit": "nM"}, {"measurement": "IC50", "setting": "second compound 10 µM", "value": "> 10000", "unit": "nM"}, {"measurement": "viability, T/C", "setting": "[1]", "value": 100, "unit": "%"}, {"measurement": "viability, T/C", "setting": "[2]", "value": 96.1, "unit": "%"}, {"measurement": "viability, T/C", "setting": "[3]", "value": 92.4, "unit": "%"}, {"measurement": "viability, T/C", "setting": "[4]", "value": 98.8, "unit": "%"}, {"measurement": "viability, T/C", "setting": "[5]", "value": 78.4, "unit": "%"}, {"measurement": "viability, T/C", "setting": "[6]", "value": 64, "unit": "%"}, {"measurement": "viability, T/C", "setting": "[7]", "value": 97.4, "unit": "%"}, {"measurement": "viability, T/C", "setting": "[8]", "value": 98.4, "unit": "%"}, {"measurement": "viability, T/C", "setting": "[9]", "value": 99.4, "unit": "%"}, {"measurement": "viability, T/C", "setting": "[10]", "value": 90.1, "unit": "%"}, {"measurement": "viability, T/C", "setting": "[11]", "value": 74.3, "unit": "%"}, {"measurement": "viability, T/C", "setting": "[12]", "value": 66.7, "unit": "%"}, {"measurement": "viability, T/C", "setting": "[13]", "value": 90.3, "unit": "%"}, {"measurement": "viability, T/C", "setting": "[14]", "value": 103, "unit": "%"}, {"measurement": "viability, T/C", "setting": "[15]", "value": 94.7, "unit": "%"}, {"measurement": "viability, T/C", "setting": "[16]", "value": 90.2, "unit": "%"}, {"measurement": "viability, T/C", "setting": "[17]", "value": 78.2, "unit": "%"}, {"measurement": "viability, T/C", "setting": "[18]", "value": 66.2, "unit": "%"}, {"measurement": "viability, T/C", "setting": "[19]", "value": 85.9, "unit": "%"}, {"measurement": "viability, T/C", "setting": "[20]", "value": 86, "unit": "%"}, {"measurement": "viability, T/C", "setting": "[21]", "value": 81.8, "unit": "%"}, {"measurement": "viability, T/C", "setting": "[22]", "value": 83.7, "unit": "%"}, {"measurement": "viability, T/C", "setting": "[23]", "value": 70.8, "unit": "%"}, {"measurement": "viability, T/C", "setting": "[24]", "value": 55.9, "unit": "%"}, {"measurement": "viability, T/C", "setting": "[25]", "value": 67.5, "unit": "%"}, {"measurement": "viability, T/C", "setting": "[26]", "value": 62.8, "unit": "%"}, {"measurement": "viability, T/C", "setting": "[27]", "value": 67.1, "unit": "%"}, {"measurement": "viability, T/C", "setting": "[28]", "value": 63.4, "unit": "%"}, {"measurement": "viability, T/C", "setting": "[29]", "value": 56.6, "unit": "%"}, {"measurement": "viability, T/C", "setting": "[30]", "value": 49, "unit": "%"}]}
